In patent US20220290140A1, “TRANS-CYCLOOCTENE LABELED ANTISENSE OLIGONUCLEOTIDES, RADIO LABELED TETRAZINE AND METHODS” (Biogen MA Inc., priority 2019, published 2022):

What was measured:
Type in all cases: in vitro ADME
[1] = Plasma protein binding (PPB); conditions: rat, read-out: plasma protein binding, unbound
From the text: (§1) As pretargeting is a 2-component system, an ^18F-Tz was developed to be CNS-penetrant based on cnsPET-MPO modeling (Zhang, L., et al. (2018). J Med Chem 61(8): 3296-3308).

[2] = Brain protein binding (BPB); conditions: rat, brain tissue (brain protein binding)
From the text: as §1

BCRP = target: T1, BCRP (Homo sapiens, UniProt Q9UNQ0); assay: in vitro; conditions: dog
T1 construct: expressed in transfected cells; host or cells: MDCK (canine kidney) cells expressing BCRP
T1 sequence (Q9UNQ0 1-655): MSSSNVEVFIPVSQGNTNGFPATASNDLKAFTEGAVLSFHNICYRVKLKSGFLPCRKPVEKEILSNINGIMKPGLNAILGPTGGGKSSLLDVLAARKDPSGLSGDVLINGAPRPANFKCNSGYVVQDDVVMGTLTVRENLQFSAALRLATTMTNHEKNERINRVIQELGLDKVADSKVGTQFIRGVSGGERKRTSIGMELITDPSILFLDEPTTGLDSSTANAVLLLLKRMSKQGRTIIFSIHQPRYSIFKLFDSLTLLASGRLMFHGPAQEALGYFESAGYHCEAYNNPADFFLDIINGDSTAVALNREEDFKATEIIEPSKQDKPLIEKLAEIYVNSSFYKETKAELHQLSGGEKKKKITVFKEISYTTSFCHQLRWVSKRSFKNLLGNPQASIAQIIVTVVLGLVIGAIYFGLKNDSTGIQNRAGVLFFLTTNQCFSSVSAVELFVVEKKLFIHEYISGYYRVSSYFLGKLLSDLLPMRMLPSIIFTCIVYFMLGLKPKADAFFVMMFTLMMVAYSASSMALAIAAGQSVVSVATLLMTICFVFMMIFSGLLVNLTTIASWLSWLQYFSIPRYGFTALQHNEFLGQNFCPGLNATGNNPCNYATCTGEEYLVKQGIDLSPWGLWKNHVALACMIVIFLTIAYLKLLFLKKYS
From the text: as §1

P-gp = target: T2, P-gp (Homo sapiens, UniProt P08183); assay: MDCK-P-gp cell model of permeability (efflux ratio); conditions: dog, MDCK-MDR1
T2 construct: expressed in transfected cells; host or cells: MDCK (canine kidney) cells expressing P-gp
From the text: as §1

T2 sequence (P08183 whole entry): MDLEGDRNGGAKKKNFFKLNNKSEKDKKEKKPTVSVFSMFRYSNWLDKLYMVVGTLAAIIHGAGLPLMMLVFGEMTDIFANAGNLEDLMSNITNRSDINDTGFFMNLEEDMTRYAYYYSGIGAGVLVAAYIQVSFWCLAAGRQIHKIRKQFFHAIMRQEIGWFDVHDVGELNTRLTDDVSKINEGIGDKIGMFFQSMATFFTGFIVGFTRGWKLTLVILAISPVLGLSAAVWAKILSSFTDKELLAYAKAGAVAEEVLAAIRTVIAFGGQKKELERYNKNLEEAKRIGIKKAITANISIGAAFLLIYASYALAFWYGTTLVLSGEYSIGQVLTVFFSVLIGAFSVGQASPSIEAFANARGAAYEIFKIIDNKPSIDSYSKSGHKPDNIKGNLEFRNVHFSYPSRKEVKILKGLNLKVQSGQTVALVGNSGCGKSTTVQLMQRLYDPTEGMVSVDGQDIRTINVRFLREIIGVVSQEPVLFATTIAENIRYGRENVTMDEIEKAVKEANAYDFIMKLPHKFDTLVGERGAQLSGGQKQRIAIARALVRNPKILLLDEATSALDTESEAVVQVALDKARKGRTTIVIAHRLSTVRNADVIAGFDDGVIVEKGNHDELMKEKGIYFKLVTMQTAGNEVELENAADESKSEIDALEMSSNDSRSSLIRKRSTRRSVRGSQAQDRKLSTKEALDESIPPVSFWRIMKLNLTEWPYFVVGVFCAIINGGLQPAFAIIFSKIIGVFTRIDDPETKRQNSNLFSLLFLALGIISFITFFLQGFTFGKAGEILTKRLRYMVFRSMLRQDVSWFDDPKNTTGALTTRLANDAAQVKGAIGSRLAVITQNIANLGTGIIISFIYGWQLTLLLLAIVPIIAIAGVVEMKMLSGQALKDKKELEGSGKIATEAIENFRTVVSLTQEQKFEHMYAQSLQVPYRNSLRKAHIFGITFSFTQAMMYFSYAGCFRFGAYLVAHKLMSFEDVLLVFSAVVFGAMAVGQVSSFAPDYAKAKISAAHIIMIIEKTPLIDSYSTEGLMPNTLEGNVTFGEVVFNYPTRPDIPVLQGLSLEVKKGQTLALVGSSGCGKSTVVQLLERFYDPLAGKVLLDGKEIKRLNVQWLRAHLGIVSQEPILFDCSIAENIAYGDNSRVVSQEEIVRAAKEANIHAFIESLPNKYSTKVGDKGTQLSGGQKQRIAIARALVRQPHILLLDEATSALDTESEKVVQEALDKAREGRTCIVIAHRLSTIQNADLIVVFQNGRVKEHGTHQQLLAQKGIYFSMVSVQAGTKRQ

A fraction unbound [1] of 0.69, a fraction unbound [2] of 0.51 and an efflux ratio (BCRP) of 0.51 were found for `O=C(Cc1ccc(-c2nncnn2)cc1)NCCF` [Compound 1′, 2-(4-(1,2,4,5-tetrazin-3-yl)phenyl)-N-(2-fluoroethyl)acetamide] in this work. It also gave an efflux ratio (P-gp) of 1.71.
